Test results: publication PMC5061366, “Metagenomic Analysis of the Sponge Discodermia Reveals the Production of the Cyanobacterial Natural Product Kasumigamide by ‘Entotheonella’” (PLoS ONE, 2016)

Key:
Conditions in all cases: 1 mM substrate, 1 uM protein, 0.5 mM ATP, 10 mM MgCl2, 32 mM hydroxylamine, 1 mM DTT, pH 7.5, room temperature, 10 min
MakasC-A1 = MakasC-A1 (Microcystis aeruginosa, UniProt A0A1L7NR40)
MakasB-A2 = biological target: T1, MakasB-A2 (Microcystis aeruginosa, UniProt A0A1L7NR43); test: malachite green phosphate assay of adenylation (hydroxylamine, pyrophosphatase); format: biochemical
T1 construct: single adenylation domain A2 of MakasB; N-terminal His6-MBP fusion (NhisMBP-pET28b(+)), E. coli BLR(DE3)

MakasC-A2 = biological target: T2, MakasC-A2 (Microcystis aeruginosa, UniProt A0A1L7NR40); test: as above; format: biochemical
T2 construct: C-A2-PCP tridomain of MakasC (MakasC-CA2P); N-terminal His6 (pCold II), E. coli BLR(DE3)

MakasB-A1 = biological target: T3, MakasB-A1 (Microcystis aeruginosa, UniProt A0A1L7NR43); test: as above; format: biochemical
T3 construct: C-A1-PCP tridomain of MakasB (MakasB-CA1P); N-terminal His6 (pCold II), E. coli BLR(DE3)

MakasA-A1 = biological target: T4, MakasA-A1 (Microcystis aeruginosa, UniProt A0A1L7NR41); test: as above; format: biochemical
T4 construct: single adenylation domain A1 of MakasA; N-terminal His6 (pCold II), E. coli BLR(DE3)
T4 sequence (A0A1L7NR41 1-560 limits assumed): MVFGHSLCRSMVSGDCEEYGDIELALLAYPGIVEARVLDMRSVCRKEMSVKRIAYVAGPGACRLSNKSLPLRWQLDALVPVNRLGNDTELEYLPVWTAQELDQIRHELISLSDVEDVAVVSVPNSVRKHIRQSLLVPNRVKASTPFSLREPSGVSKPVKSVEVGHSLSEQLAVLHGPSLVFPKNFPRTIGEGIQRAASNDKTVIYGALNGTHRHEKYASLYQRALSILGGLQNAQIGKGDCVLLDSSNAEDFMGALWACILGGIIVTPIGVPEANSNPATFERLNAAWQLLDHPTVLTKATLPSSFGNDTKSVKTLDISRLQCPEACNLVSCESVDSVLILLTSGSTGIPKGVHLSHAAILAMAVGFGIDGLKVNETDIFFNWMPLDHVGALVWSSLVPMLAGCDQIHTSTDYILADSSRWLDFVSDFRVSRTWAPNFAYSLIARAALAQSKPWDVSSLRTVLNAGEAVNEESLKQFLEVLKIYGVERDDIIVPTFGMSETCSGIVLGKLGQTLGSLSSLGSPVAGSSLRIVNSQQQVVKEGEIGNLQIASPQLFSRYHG

N=C(N)NCCC[C@H](N)C(=O)O [L-Arg]
relative adenylation activity (MakasC-A1): exhibited catalytic activities selective for PP, β-Ala, L-Trp, and L-Arg, respectively

N[C@@H](Cc1c[nH]c2ccccc12)C(=O)O [L-Trp]
relative adenylation activity (MakasB-A2): exhibited catalytic activities selective for PP, β-Ala, L-Trp, and L-Arg, respectively

NC(C(=O)O)C(O)c1ccccc1 (racemic) [DL-threo-3-phenylserine]
relative adenylation activity (MakasC-A2): MakasC-A2 showed higher selectivity to DL-threo-3-phenylserine (DL-threo-PS) than L-Phe

NCCC(=O)O [β-Ala]
relative adenylation activity (MakasB-A1): exhibited catalytic activities selective for PP, β-Ala, L-Trp, and L-Arg, respectively

O=C(O)C(=O)Cc1ccccc1 [phenyl pyruvic acid]
relative adenylation activity (MakasA-A1): exhibited catalytic activities selective for PP, β-Ala, L-Trp, and L-Arg, respectively
